Experimental data taken from ChEMBL document CHEMBL1127200, “Novel dimeric penicillin derived inhibitors of HIV-1 proteinase: interaction with the catalytic aspartates” (Bioorg Med Chem Lett, 1993).

Target: Human immunodeficiency virus type 1 protease (Human immunodeficiency virus 1, UniProt Q72874)
Experiment: The compound was tested in vitro for its inhibitory activity against HIV-1 Proteinase activity

Row | SMILES | IC50
1 | CC1(C)S[C@H]([C@H](NC(=O)Cc2ccccc2)C(=O)NCc2ccccc2)N[C@H]1C(=O)NC[C@@H](O)[C@@H](O)CNC(=O)[C@@H]1N[C@@H]([C@H](NC(=O)Cc2ccccc2)C(=O)NCc2ccccc2)SC1(C)C | 14 nM
2 | CCCNC(=O)[C@@H](NC(=O)Cc1ccccc1)[C@@H]1N[C@@H](C(=O)N(C)CCN(C)C(=O)[C@@H]2N[C@@H]([C@H](NC(=O)Cc3ccccc3)C(=O)NCC)SC2(C)C)C(C)(C)S1 | 11 nM
3 | CC1(C)S[C@H]([C@H](NC(=O)Cc2ccccc2)C(=O)NCc2ccccc2)N[C@H]1C(=O)NC[C@H](O)[C@@H](O)CNC(=O)[C@@H]1N[C@@H]([C@H](NC(=O)Cc2ccccc2)C(=O)NCc2ccccc2)SC1(C)C | 36 nM
4 | CCCNC(=O)[C@@H](NC(=O)Cc1ccccc1)[C@@H]1N[C@@H](C(=O)NCC(CO)NC(=O)[C@@H]2N[C@@H]([C@H](NC(=O)Cc3ccccc3)C(=O)NCC)SC2(C)C)C(C)(C)S1 (stereo partly specified) | 25 nM
5 | CC1(C)S[C@H]([C@H](NC(=O)Cc2ccccc2)C(=O)NCc2ccccc2)N[C@H]1C(=O)NCCCCNC(=O)[C@@H]1N[C@@H]([C@H](NC(=O)Cc2ccccc2)C(=O)NCc2ccccc2)SC1(C)C | 530 nM
6 | CC1(C)S[C@H]([C@H](NC(=O)Cc2ccccc2)C(=O)NCc2ccccc2)N[C@H]1C(=O)NC[C@@H](O)[C@H](O)CNC(=O)[C@@H]1N[C@@H]([C@H](NC(=O)Cc2ccccc2)C(=O)NCc2ccccc2)SC1(C)C | 15 nM
